This passage reports GI50 and TGI results from PubChem BioAssay (NCI).

Values joined by “and” are separate entries in the source; they are usually repeats but may differ in a detail not shown here. Identical values can stand only once.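 The compound was tested at five concentrations on cells cultured in 96-well plates, with a 48-hour exposure period. At the GI50, growth is halved. TGI: concentration producing complete growth inhibition.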

Among the test systems are COLO 205 colon; SF-295 CNS; SK-MEL-5 melanoma; SR leukemia; U251 CNS; BT-549 breast; K-562 leukemia; NCI-H23 lung; HL-60(TB) leukemia; T-47D breast.
Test in all cases: NCI anticancer screen, dose series, 48 h

For the compound `Cc1cc(-c2cc(O)ccc2Cl)cc2nnc(Nc3ccc(OCCN4CCCC4)cc3)nc12`, the GI50 in the assay with COLO 205 colon was 2.08 µM; with SF-295 CNS, 1.7 µM; with SK-MEL-5 melanoma, 1.75 µM; in the assay on SR leukemia it was 0.239 µM; in the assay with U251 CNS it was 0.194 µM; with BT-549 breast it was 1.45 µM. Also, the GI50 with K-562 leukemia is 0.0443 µM; in the assay with NCI-H23 lung, 0.812 µM; in the assay with HL-60(TB) leukemia, 0.305 µM; in the assay on T-47D breast it was 1.66 µM. Moreover, the TGI worked out at 4.29 µM in the assay on COLO 205 colon; 3.32 µM in the assay with SF-295 CNS; 3.37 µM in the assay on SK-MEL-5 melanoma; 0.595 µM in the assay on SR leukemia; 0.372 µM in the assay with U251 CNS; 3.16 µM with BT-549 breast. Moreover, the TGI came out at 0.245 µM in the assay on K-562 leukemia, 2.48 µM with NCI-H23 lung, 0.627 µM in the assay on HL-60(TB) leukemia and 3.95 µM with T-47D breast.

With `Cc1cc2c(-c3nc4ccccn4c3N)c(O)c(O)cc2c(O)c1-c1c(C)cc2c(-c3nc4ccccn4c3N)c(O)c(O)cc2c1O`, the GI50 with COLO 205 colon is 1.07 µM; in the assay with SK-MEL-5 melanoma, 0.554 µM; in the assay with SR leukemia, 1.96 µM; with U251 CNS it was 0.273 µM; in the assay on BT-549 breast, 0.145 µM; with K-562 leukemia it was 1.02 µM. Moreover, the GI50 was 0.543 µM in the assay with NCI-H23 lung, 1.64 µM in the assay on HL-60(TB) leukemia and 0.502 µM in the assay with T-47D breast. Also, the TGI with COLO 205 colon was above 25 µM; with SK-MEL-5 melanoma it was 1.66 µM; in the assay with SR leukemia, above 25 µM; in the assay with U251 CNS, above 25 µM; with BT-549 breast it was above 25 µM; in the assay with K-562 leukemia it was above 25 µM. Moreover, the TGI in the assay with NCI-H23 lung, in the assay on HL-60(TB) leukemia and in the assay with T-47D breast was above 25 µM each time.

Take `CC(=O)N1N=C(c2ccc(Nc3nc(Nc4ccc(F)cc4)nc(Nc4ccc(F)cc4)n3)cc2)CC1c1ccc(N(C)C)cc1` (centres undefined): the GI50 with COLO 205 colon is 5.73 µM; with SF-295 CNS it was 4.34 µM; with SK-MEL-5 melanoma, 2.83 µM; in the assay on U251 CNS, 12.6 µM; in the assay on BT-549 breast it was 11 µM; in the assay on K-562 leukemia it was 2.69 µM. For the same compound, the results for the GI50 in the assay with NCI-H23 lung, with HL-60(TB) leukemia and in the assay with T-47D breast were 4.1 µM, 2 µM and 4.5 µM, respectively. The TGI with COLO 205 colon was determined as 22.6 µM; in the assay on SF-295 CNS it was 50.7 µM; in the assay on SK-MEL-5 melanoma it was 13 µM; in the assay on U251 CNS, 25.2 µM; in the assay with BT-549 breast, 54.8 µM; with K-562 leukemia it was 7.31 µM. The TGI in the assay with NCI-H23 lung is 26.7 µM; in the assay with HL-60(TB) leukemia, 6.12 µM; with T-47D breast it was 37.4 µM.

As to `Nc1nc(/C=C\c2ccccc2)nc(N2CCN(c3ccccc3)CC2)n1`, the GI50 is 16.4 µM in the assay with COLO 205 colon; 30 µM in the assay on SF-295 CNS; 21.1 µM in the assay on SK-MEL-5 melanoma; 35.8 µM in the assay on SR leukemia; 24.3 µM with U251 CNS; 45 µM in the assay with BT-549 breast. The GI50 is 20.5 µM in the assay with K-562 leukemia, 25.4 µM in the assay with HL-60(TB) leukemia and 11.6 µM in the assay with T-47D breast. The TGI in the assay on COLO 205 colon was 35.8 µM; in the assay on SF-295 CNS it was above 100 µM; in the assay on SK-MEL-5 melanoma, 45 µM; in the assay on SR leukemia it was above 100 µM; in the assay with U251 CNS it was 69.2 µM; in the assay with BT-549 breast, above 100 µM. Moreover, the TGI was 65.1 µM in the assay with K-562 leukemia, 66.3 µM in the assay on HL-60(TB) leukemia and 41.9 µM in the assay with T-47D breast.

Turning to `CN1CCN(C(=O)COc2ccc(/C=C3\CC4C5CC=C6CC(Cl)CCC6(C)C5CCC4(C)C3=O)cc2)CC1` (centres undefined), the GI50 in the assay on COLO 205 colon was above 100 µM; in the assay on SF-295 CNS, above 100 µM; in the assay on U251 CNS, 3.33 µM; with BT-549 breast, 96.1 µM; with K-562 leukemia it was 2.61 µM; with NCI-H23 lung it was above 100 µM. In addition, the GI50 with T-47D breast is above 100 µM. The TGI in the assay with COLO 205 colon, in the assay on SF-295 CNS, in the assay with U251 CNS, in the assay with BT-549 breast, in the assay with K-562 leukemia and in the assay on NCI-H23 lung was above 100 µM each time. Besides, in the assay with T-47D breast, the TGI is above 100 µM.

For the compound `O=c1c(Cl)c(Cl)cnn1CCCl`, the TGI in the assay on COLO 205 colon is 7.69 µM; with SF-295 CNS, 31.4 µM; in the assay with SK-MEL-5 melanoma, 15.2 µM; with U251 CNS it was 12.3 µM; with BT-549 breast, 13.9 µM; in the assay on K-562 leukemia it was 5.18 µM. In addition, the TGI came out at 6.46 µM with NCI-H23 lung, 5.58 µM with HL-60(TB) leukemia and 14.6 µM in the assay with T-47D breast.

Take `C=CCC(N[C@H](CO)c1ccccc1)c1cn(Cc2ccccc2Cl)c(=O)n(Cc2ccccc2Cl)c1=O` (some centres undefined): the GI50 in the assay on COLO 205 colon is 14.7 µM; with SF-295 CNS it was 8.13 µM; in the assay with SK-MEL-5 melanoma, 14.6 µM; in the assay on U251 CNS it was 11.2 µM; with K-562 leukemia, 6.78 µM; in the assay on NCI-H23 lung, 19.5 µM. The GI50 in the assay with HL-60(TB) leukemia is 5.87 µM; in the assay with T-47D breast, above 100 µM. Further, the TGI with COLO 205 colon turned out to be 86.8 µM; with SF-295 CNS, 48 µM; in the assay on SK-MEL-5 melanoma, 30.1 µM; with U251 CNS, 34 µM; in the assay with BT-549 breast it was 7.01 µM; in the assay on K-562 leukemia, 40.7 µM. In addition, the TGI was 62.1 µM in the assay with NCI-H23 lung, 34 µM with HL-60(TB) leukemia and above 100 µM in the assay with T-47D breast.

For the compound `CCCCCCCC/C=C/CCCCCCCC1=NC(C)(C)CN1CCO`, the GI50 in the assay on COLO 205 colon is 1.66 µM; with SF-295 CNS it was 1.73 µM; with SK-MEL-5 melanoma, 2.87 µM; in the assay on U251 CNS, 1.62 µM; in the assay with BT-549 breast, 5.76 µM; with K-562 leukemia, 1.3 µM. Further, the GI50 in the assay on NCI-H23 lung is 1.84 µM; with HL-60(TB) leukemia it was 1.74 µM; in the assay with T-47D breast, 1.94 µM. In addition, the TGI with COLO 205 colon was determined as 3.11 µM; in the assay with SF-295 CNS it was 3.36 µM; in the assay on SK-MEL-5 melanoma it was 8.4 µM; in the assay with U251 CNS it was 2.97 µM; in the assay on BT-549 breast, 19.6 µM; with K-562 leukemia, 3.02 µM. Further, the figures for the TGI in the assay on NCI-H23 lung, in the assay on HL-60(TB) leukemia and with T-47D breast were 3.7 µM, 3.81 µM and 4.34 µM, respectively.

As for `O=C1c2ccccc2-c2c1c1ccccc1c(=O)n2CCCNCCn1c2c(c3ccccc3c1=O)C(=O)c1ccccc1-2`, the GI50 was 36.2 µM with COLO 205 colon; 7.77 µM in the assay on SF-295 CNS; 1.61 µM in the assay with U251 CNS; 10.8 µM with BT-549 breast; 19.2 µM with K-562 leukemia; 2.25 µM in the assay with NCI-H23 lung. In addition, the GI50 in the assay on HL-60(TB) leukemia is 34.6 µM; in the assay with T-47D breast, 17.8 µM. The TGI in the assay on COLO 205 colon was above 100 µM; in the assay on SF-295 CNS, 27.5 µM; in the assay on U251 CNS it was 3.29 µM; in the assay on BT-549 breast, 28.6 µM; in the assay with K-562 leukemia it was 42.3 µM; in the assay on NCI-H23 lung it was 11.6 µM. In addition, the values for the TGI with HL-60(TB) leukemia and in the assay on T-47D breast were 96.8 µM and 34.6 µM, respectively.

`CC1=CC(C)(C)NN1C1=NS(=O)(=O)c2ccccc2N1C`: the TGI with COLO 205 colon, in the assay on SF-295 CNS, in the assay on SK-MEL-5 melanoma, in the assay on U251 CNS, in the assay with BT-549 breast and in the assay with K-562 leukemia was above 100 µM in each case. Also, the TGI with NCI-H23 lung, in the assay on HL-60(TB) leukemia and in the assay on T-47D breast was above 100 µM in each case.

For the compound `C=CCC(N[C@@H](CO)c1ccccc1)c1cn(C(=O)OCC)c2ccccc12` (some centres undefined), the GI50 in the assay on COLO 205 colon was 20.1 µM; in the assay with SF-295 CNS it was 20.8 µM; in the assay on SK-MEL-5 melanoma, 14.2 µM; with U251 CNS, 17.9 µM; with BT-549 breast, 32.9 µM; in the assay with K-562 leukemia, 22.6 µM. Also, the GI50 with NCI-H23 lung was 20.5 µM; with HL-60(TB) leukemia, 24.1 µM; in the assay on T-47D breast it was 25.8 µM. For the same compound, the TGI with COLO 205 colon is 44.1 µM; in the assay with SF-295 CNS, 53.9 µM; in the assay with SK-MEL-5 melanoma, 28.9 µM; in the assay on U251 CNS, 32.4 µM; in the assay with BT-549 breast, above 100 µM; with K-562 leukemia, above 100 µM. Also, the TGI with NCI-H23 lung was 49.6 µM; in the assay with HL-60(TB) leukemia, above 100 µM; in the assay with T-47D breast it was above 100 µM.

In the case of `CC(C)CCCCCCCCCCCCC(=O)NCC(=O)NC1C(O)C(O)C(Nc2ncnc3nc[nH]c23)OC1C(O)CO` (centres undefined), the TGI was 0.00316 µM and 0.00155 µM and 0.00526 µM in the assay on COLO 205 colon; 0.412 µM and 3.94 µM with K-562 leukemia; 0.0354 µM and 0.0371 µM in the assay on NCI-H23 lung; 0.917 µM in the assay on T-47D breast. For the same compound, the GI50 was below 1e-05 µM with SR leukemia; below 1e-05 µM in the assay with BT-549 breast; 0.00331 µM and 0.0128 µM in the assay with K-562 leukemia; 0.005 µM in the assay on NCI-H23 lung.

For the compound `O=C(O)C1[O][Sb][O]C(C(=O)O)C1O` (centres undefined), the GI50 in the assay with SF-295 CNS, in the assay with SK-MEL-5 melanoma, with SR leukemia, in the assay on U251 CNS, in the assay on BT-549 breast and in the assay on K-562 leukemia was above 100 µM each time. Besides, the GI50 in the assay with NCI-H23 lung and in the assay with T-47D breast was above 100 µM throughout. The TGI in the assay with SF-295 CNS, in the assay with SK-MEL-5 melanoma, with SR leukemia, with U251 CNS, in the assay on BT-549 breast and in the assay on K-562 leukemia was above 100 µM each time. Besides, the TGI in the assay with NCI-H23 lung and with T-47D breast was above 100 µM throughout.
